Columns and labels:
[1] = biological target: T1, human recombinant serotonin (5-Hydroxytryptamine) 5-HT5A receptor (Homo sapiens, UniProt P47898); assay: Serotonin 5-HT5A radioligand binding assay ([3H]LSD); settings: compound at 0.1 μM; 1.7 nM [3H]LSD; CHO-K1 cells; read-out: Percent Inhibition of ligand binding, Serotonin (0.1 μM) 5-HT5A
T1 construct: expressed in transfected cells; host or cells: Chinese hamster ovary (CHO-K1) cells
Method: Compounds of the invention were incubated with 1.7 nM [^3H]Lysergic acid diethylamide (LSD) for 60 min at 37° C. […] Receptor proteins were filtered and washed, the filters were then counted to determine [^3H]LSD specifically bound. Compounds were screened at 1 μM or lower, using 1% DMSO as vehicle. Compounds of the invention were tested in this biochemical assay and percent inhibition of specific binding was determined. Biochemical assay results are presented as the percent inhibition of specific binding in Table 4.

[2] = biological target: T2, rat adrenergic α1B receptor (Rattus norvegicus, UniProt P15823); assay: Adrenergic α1B radioligand binding assay ([3H]Prozosin); settings: compound at 0.1 μM; 0.25 nM [3H]Prozosin; Wistar Rat liver; read-out: Percent Inhibition of ligand binding, Adrenergic (0.1 μM) a1B
T2 construct: from tissue; host or cells: Wistar Rat liver
T2 sequence (P15823 1-515): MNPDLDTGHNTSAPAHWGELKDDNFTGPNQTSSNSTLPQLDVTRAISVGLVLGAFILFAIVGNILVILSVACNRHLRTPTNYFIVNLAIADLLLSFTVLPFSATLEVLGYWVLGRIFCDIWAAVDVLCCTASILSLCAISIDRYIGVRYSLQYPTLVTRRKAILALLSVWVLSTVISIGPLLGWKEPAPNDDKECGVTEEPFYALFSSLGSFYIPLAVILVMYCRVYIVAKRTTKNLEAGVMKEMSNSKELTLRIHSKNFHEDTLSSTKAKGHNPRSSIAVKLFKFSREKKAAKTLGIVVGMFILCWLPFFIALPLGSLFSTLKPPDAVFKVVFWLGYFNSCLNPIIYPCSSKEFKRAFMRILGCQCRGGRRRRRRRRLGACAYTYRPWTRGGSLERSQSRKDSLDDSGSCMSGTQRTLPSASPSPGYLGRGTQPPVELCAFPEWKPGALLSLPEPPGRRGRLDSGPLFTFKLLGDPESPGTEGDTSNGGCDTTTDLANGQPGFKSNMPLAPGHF
Method: To evaluate in radioligand binding assays the activity of compounds of the invention, rat adrenergic α1B receptor obtained from Wistar Rat liver (Garcia-S'ainz, J. A. et al., Biochem. Biophys. Res. Commun. 186:760, 1992; Michel A. D. et al., Br. J. Pharmacol. 98:883, 1989) in a modified Tris-HCl buffer (50 mM Tris-HCl buffer, pH 7.4, 0.5 mM EDTA) is used. Compounds of the invention are incubated with 0.25 nM [^3H]Prozosin for 60 min at 25° C. Non-specific binding is estimated in the presence of 10 μM phentolamine. Receptor proteins are filtered and washed, the filters are then counted to determine [^3H]Prozosin specifically bound. Compounds are screened at 1 μM or lower, using 1% DMSO as vehicle. Compounds of the invention are tested in this biochemical assay and percent inhibition of specific binding is determined.

T1 sequence (P47898 whole entry): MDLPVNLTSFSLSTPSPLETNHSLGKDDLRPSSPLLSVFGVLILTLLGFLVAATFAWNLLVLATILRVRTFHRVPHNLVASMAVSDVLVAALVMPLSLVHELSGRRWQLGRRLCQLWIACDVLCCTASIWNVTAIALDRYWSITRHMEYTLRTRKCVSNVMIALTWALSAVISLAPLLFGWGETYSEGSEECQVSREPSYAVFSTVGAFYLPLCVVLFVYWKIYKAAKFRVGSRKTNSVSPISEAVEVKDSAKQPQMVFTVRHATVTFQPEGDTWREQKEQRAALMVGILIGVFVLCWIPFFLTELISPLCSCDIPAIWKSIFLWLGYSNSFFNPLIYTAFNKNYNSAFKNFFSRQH

| SMILES | inhibition at 0.1 µM [1] [%] | inhibition at 0.1 µM [2] [%] |
| --- | --- | --- |
| CC[C@@](O)(Cn1c2c(c3cc(C)ccc31)CN(C)CC2)c1ccncc1 [Compound 1-62, (S)-1-(2,8-Dimethyl-3,4-dihydro-1H-pyrido[4,3-b]indol-5(2H)-yl)-2-(pyridine-4-yl)butan-2-ol] | 6 |  |
| CCCC[C@@](O)(Cn1c2c(c3cc(Cl)ccc31)CN(C)CC2)c1ccc(F)cc1 [Compound 1-67, (S)-1-(8-chloro-2-methyl-3,4-dihydro-1H-pyrido[4,3-b]indol-5(2H)-yl)-2-(4-fluorophenyl)hexan-2-ol] | -11 | -2 |
| Cc1ccc2c(c1)c1c(n2CC(O)c2ccncc2)CCN(C)C1 (centres unmarked) [Compound 1-8, 2-(2,8-dimethyl-3,4-dihydro-1H-pyrido[4,3-b]indol-5(2H)-yl)-1-(pyridin-4-yl)ethanol] |  | 54 |
| CC[C@@](O)(Cn1c2c(c3cc(C)ccc31)CN(C)CC2)c1ccc(F)cc1 [Compound 1-66, (S)-1-(2,8-dimethyl-3,4-dihydro-1H-pyrido[4,3-b]indol-5(2H)-yl)-2-(4-fluorophenyl)butan-2-ol] | 31 | 11 |
| Cc1ccc2c(c1)c1c(n2CCc2ccc(C)nc2)CCN(CC(F)(F)F)C1 [Compound 1-65, 8-methyl-5-(2-(6-methylpyridin-3-yl)ethyl)-2-(2,2,2-trifluoroethyl)-2,3,4,5-tetrahydro-1H-pyrido[4,3-b]indole] | -12 | -4 |
| CCCC[C@](O)(Cn1c2c(c3cc(Cl)ccc31)CN(C)CC2)c1ccc(F)cc1 [Compound 1-61, (R)-1-(8-Chloro-2-methyl-3,4-dihydro-1H-pyrido[4,3-b]indol-5(2H)-yl)-2-(4-fluorophenyl)hexan-2-ol] | 5 | 0 |
| CN1CCc2c(c3cc(Cl)c(Cl)cc3n2CC(C)(O)c2ccncc2)C1 (centres unmarked) [Compound 1-17, 1-(7,8-dichloro-2-methyl-3,4-dihydro-1H-pyrido[4,3-b]indol-5(2H)-yl)-2-(pyridin-4-yl)propan-2-ol] |  | 55 |
| COc1ccc([C@](C)(O)Cn2c3c(c4cc(C)ccc42)CN(C)CC3)cc1 [Compound 1-20, (S)-1-(2,8-Dimethyl-3,4-dihydro-1H-pyrido[4,3-b]indol-5(2H)-yl)-2-(4-methoxyphenyl)propan-2-ol] |  | 63 |
| CC[C@](O)(Cn1c2c(c3cc(C)ccc31)CN(C)CC2)c1ccc(F)cc1 [Compound 1-60, (R)-1-(2,8-Dimethyl-3,4-dihydro-1H-pyrido[4,3-b]indol-5(2H)-yl)-2-(4-fluorophenyl)butan-2-ol] | 26 | -2 |
| CN1CCc2c(c3cc(Cl)ccc3n2CC(O)c2ccncc2)C1 (centres unmarked) [Compound 1-11, 2-(8-chloro-2-methyl-3,4-dihydro-1H-pyrido[4,3-b]indol-5(2H)-yl)-1-(pyridin-4-yl)ethanol] |  | 60 |
| CC[C@](O)(Cn1c2c(c3cc(C)ccc31)CN(C)CC2)c1ccncc1 [Compound 1-63, (R)-1-(2,8-Dimethyl-3,4-dihydro-1H-pyrido[4,3-b]indol-5(2H)-yl)-2-(pyridine-4-yl)butan-2-ol] | 15 | 5 |
